Experiments:
[1] = test system: Granta (-4, -22 and -519) mantle cell lymphoma cell lines; assay: MTT cell viability assay, Granta; format: cell-based, human; conditions: for IC50: Homo sapiens, 96 h, Granta-4, -22, -519, MTT
Experimental: Cells and Reagents. Human cancer cell lines used herein include prostate (LNCaP, PC3, DU145), colon (HCT116), lung (A549), breast (MCF7) purchased from American Type Culture Collection (Rockville, Md.) and mantle cell lymphoma (Granta-4, -22 and -519) were maintained in RPMI 1640 medium (Mediatech, Va.) supplemented with 10% fetal bovine serum, 2 mM sodium pyruvate and 100 units/ml penicillin/streptomycin at 37° C. in a humidified atmosphere of 5% CO2.

[2] = test system: HCT116 colon cancer cells; assay: SCID mouse HCT116 colon cancer xenograft; format: in vivo, SCID mice; conditions: for survival: i.p. for 4 weeks, NSC348884 1.5 mg/kg Mon/Wed/Fri, doxorubicin 20 ug/kg Mon
Experimental: SCID mice were inoculated with 10×10^6 HCT116 colon cancer cells in their flanks to form measurable tumors in the range 60-100 mm^3. Mice were pair matched with 12 mice per arm. NSC348884 was administered (Monday, Wednesday, Friday), Doxorubicin (Monday), combination or vehicle by intra-peritoneal injection each for 4 weeks. Measurements of tumor growth were performed twice a week and tumor volume estimated according to the formula: [(width)^2×length]/2. Mice were weighed before the beginning of the experiment and twice a week thereafter to check for signs of toxicity. Control mice (upper panel, first bar) were treated with vehicle (DMSO), NSC348884 at 1.5 mg/kg NSC348884 (upper panel, second bar), very low dose doxorubicin at 20 ug/kg (upper panel, third bar), and the combination of NSC348884/doxorubicin (upper panel, fourth bar).

[3] = test system: LNCaP prostate cell line; assay: MTT cell viability assay, LNCaP; format: cell-based; conditions: Homo sapiens, 96 h, 4 days
Experimental: NPM plays an essential role in cellular activities such as ribosome biogenesis, cell proliferation, apoptosis and centrosome duplication. Therefore, inhibition of NPM should affect cell growth. To determine the effect of NPM inhibitor NSC348884 on cancer cell proliferation, cell viability assays were conducted on LNCaP and Granta (human mantle cell lymphoma) cells (Granta-519, -4, -22) with varying concentrations of NSC348884 over 4 days. […] The difference in IC50 is attributed to the differential proliferative capacity of the two types of cancer cell lines. Since Rev peptide binds to NPM and potentates the doxorubicin-induced decrease of cellular viability and inhibition of tumor growth in nude mice (Chan et al., 2005), we evaluated if NSC348884 would be additive or synergistic with doxorubicin, a therapy commonly used in this disease. An IC50 of 0.01-0.02 μM for doxorubicin was established for all 3 Granta cell lines, while at 0.1 nM doxorubicin had no effect on cell viability
Cells and Reagents. […]
Cell Viability Assays. […] The media and MTT dye were aspirated, and 100 μL dimethyl sulfoxide (DMSO) was added to each well, absorbance was read at 540 nm on a plate reader (Wallac Vector, PerkinElmer). Data was expressed as the percent survival of control calculated from the absorbance, corrected for background.

[4] = test system: distinct cancer cell lines; assay: Inhibition of cell proliferation, summary; format: cell-based; conditions: Homo sapiens
Experimental: Cell Viability Assays. LNCaP, Granta-4, Granta-22 and Granta-519 cell lines were seeded into 96-well tissue culture plates with 50,000 cells per well, cultured for 24 hours and exposed to NSC348884, doxorubicin or combination for four days. All studies were performed in triplicate and were repeated 3 different times. After incubation, 20 μL of 2 mg/m L 3-(4,5-dimethylthiazol-2-yl)-2,5-diphenyltetrazolium bromide (MTT) were added to each well and incubated an additional four hours. The media and MTT dye were aspirated, and 100 μL dimethyl sulfoxide (DMSO) was added to each well, absorbance was read at 540 nm on a plate reader (Wallac Vector, PerkinElmer). Data was expressed as the percent survival of control calculated from the absorbance, corrected for background.

[5] = molecular target: T1, NPM oligomer (Homo sapiens, UniProt P06748); assay: NPM oligomer formation by native PAGE / immunoblotting; format: cell-based; conditions: LNCaP and HCT116 cells, 5 and 6 μM, 24 hr
T1 construct: endogenous in cells; host or cells: LNCaP and HCT116
Experimental: (§1) To examine whether NSC348884 specifically interacts with NPM and disrupts its oligomer formation, LNCaP and HCT116 cells with wild type NPM (no translocations) were treated with varying concentrations of NSC348884 (0, 5, 6 μM) for 24 hr, lyzed under non-denaturing conditions and analyzed by native PAGE which is an excellent tool for detecting oligomers and aggregates since the protein retains its folded conformation. We utilized 14-3-3 which forms dimers as a control. […] The two bands shown in HCT116 represent different isoforms of 14-3-3 proteins. Taken together, NSC348884 is able to bind to NPM and interfere with oligomer formation of NPM specifically.
(§2) Immunoblotting. LNCaP or HCT116 cells were lysed in NP-40 lysis buffer containing 50 mM Tris-Cl (pH 7.4), 0.15 M NaCl, 0.5% NP-40, 1 mM DTT, 50 mM sodium fluoride and 2 μl/ml of a protease inhibitor cocktail (Sigma, St. Louis, Mo.). Protein concentrations were-determined using the Bio-Rad protein assay kit (Hercules, Calif.) and 50 μg of protein was resolved by electrophoresis on a 10% SDS-PAGE. […] The membrane was subjected to the indicated antibodies and the proteins were detected by the SuperSignal West Pico detection system (Pierce, Rockford, Ill.). […]

[6] = test system: 14-3-3 dimer; assay: 14-3-3 dimer formation control, native PAGE; format: cell-based, human; conditions: LNCaP and HCT116 cells, 5 and 6 μM, 24 hr
Experimental: as §1, §2

[7] = test system: LNCaP cells; assay: Apoptosis by morphology (acridine orange/ethidium bromide fluorescent staining); format: cell-based, human; conditions: 24 hr
Experimental: (§3) Apoptosis Assays. Drug treated LNCaP cells were examined for apoptotic morphology using a fluorescence staining technique as described previously (Qi and Martinez, 2003). Briefly, cells were exposed to DMSO or 1 to 5 μM of NSC348884 for 24 hr and were harvested by trypsinization. After staining with a mixed dye solution containing […] each of acridine orange and ethidium bromide the morphology of the cells were observed by fluorescence microscopy, and the number of apoptotic cells was quantified. Studies were performed in triplicate and mean+SD calculated. In all cases a minimum of 200 cells were counted for each sample. Using Annexin V staining to detect apoptosis, treated MCF-7, PC-3, DU145 and Granta (−519, −4, −22) cells were harvested by trypsinization and rinsed with cold PBS once. After centrifugation for 5 min, cancer cells were resuspended in 500 μl of 1 Annexin V binding buffer (BioVision, Annexin V-FITC Reagent Kit, Cat. #1001-1000) and then added 1 μl of Annexin V-FITC and 1 μl of Propidium Iodide (BioVision, Annexin VFITC Reagent Kit). After incubation for 5 min at room temperature in the dark, the samples were analyzed by flow cytometry.

[8] = test system: LNCaP; assay: Apoptosis markers by immunoblotting (PARP cleavage, H2AX phosphorylation); format: cell-based, human; conditions: 4 and 5 μM
Experimental: Immunoblotting. LNCaP or HCT116 cells were lysed in NP-40 lysis buffer containing 50 mM Tris-Cl (pH 7.4), 0.15 M NaCl, 0.5% NP-40, 1 mM DTT, 50 mM sodium fluoride and 2 μl/ml of a protease inhibitor cocktail (Sigma, St. Louis, Mo.). Protein concentrations were-determined using the Bio-Rad protein assay kit (Hercules, Calif.) and 50 μg of protein was resolved by electrophoresis on a 10% SDS-PAGE. The proteins were then transferred onto a nitrocellulose membrane and nonspecific binds were blocked by incubating with 5% nonfat milk in TBST buffer (0.01 M Tris-Cl, pH 8.0, 0.15 M NaCl, 0.5% Tween-20) at room temperature for 1 hr. The membrane was subjected to the indicated antibodies and the proteins were detected by the SuperSignal West Pico detection system (Pierce, Rockford, Ill.). For native PAGE gel experiment, the samples were not denatured by heating and the electrophoresis was run in the absence of SDS.

[9] = test system: MCF7, PC-3, DU145 and Granta cells; assay: Annexin V staining and flow cytometry; format: cell-based, human; conditions: several different cancer cell lines, 24 h
Experimental: Furthermore, apoptosis induced by NSC348884 was confirmed by Annexin V staining and flow cytometry (FACS) analysis.
as §3

[10] = test system: p53; assay: p53 / p21 Western blotting; format: cell-based, human
[11] = test system: p53; assay: p53 immunocytochemistry; format: cell-based, human; conditions: LNCaP and A549, 5 μM, 6 h, versus vehicle
From the text: Mounting evidences indicate that NPM negatively regulates tumor suppressor p53 through interaction with p53 directly to prevent its phosphorylation on Ser15 (Maiguel et al., 2004) or through binding with p14ARF to impair the ARF-Hdm2 association and increase Hdm2/p53 complex formation (Gjerset, 2006). NPM knockdown by small interfering RNA enhances p53 phosphorylation and transcriptional activity. Therefore, inhibition of NPM by NSC348884 could affect p53 status. To address this, LNCaP cells were untreated and treated with different dosage of NSC348884 for 2 h to 24 h, and the changes in p53 protein and phosphorylation levels were determined by Western blot. Indeed, NSC348884 increased both p53 protein level and phosphorylation on Ser15 in a dose-dependent manner after 2 h of incubation (FIG. 5A).
Immunocytochemistry. LNCaP, A549 or HCT116 cells grown on cover slips were treated with DMSO or 5 μM of NSC348884 for 6 hr and then fixed in cold methanol:acetone (3:7) for 5 minutes. The cover slips were washed twice with cold PBS and blocked with blocking buffer (1% BSA, 0.01% saponin and 1% normal mouse serum in PBS) for 1 hr at room temperature. The cover slips were then immunostained using anti-p53 antibody at the dilution 1:100 in blocking buffer overnight at 4° C. […]

T1 sequence (P06748 whole entry): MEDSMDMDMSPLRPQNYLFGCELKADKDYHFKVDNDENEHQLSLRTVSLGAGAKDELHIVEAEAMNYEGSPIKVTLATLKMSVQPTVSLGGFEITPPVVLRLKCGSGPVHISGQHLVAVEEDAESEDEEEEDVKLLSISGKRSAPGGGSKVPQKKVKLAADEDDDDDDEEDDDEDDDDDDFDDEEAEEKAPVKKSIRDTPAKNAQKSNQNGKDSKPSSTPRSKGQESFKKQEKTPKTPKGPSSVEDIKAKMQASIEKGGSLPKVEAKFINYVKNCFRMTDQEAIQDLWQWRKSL

| SMILES | IC50 ([1]; 4 days) | effect on cell viability ([1]; doxorubicin at 0.1 nM alone) | survival [2] | IC50 [3] | effect on cell viability ([1]; NSC348884 at 1 μM alone, 4 days, MTT) | IC50 [4] | NPM oligomer formation [5] | 14-3-3 dimer formation [6] | apoptosis by morphology, dose dependence ([7]; 0-5 μM) | apoptosis by morphology ([7]; 4 and 5 μM) | PARP-cleavage and H2AX phosphorylation on Ser139 [8] | apoptosis by Annexin V binding [9] | p21 protein level ([10]; HCT116, 5 μM, 24 h) | p53 protein level and phosphorylation on Ser15 ([10]; LNCaP, after 2 h of incubation) | p53 level ([10]; breast cancer cell line MCF7) | p53 by immunocytochemistry staining [11] | survival advantage ([2]; versus control) |
| --- | --- | --- | --- | --- | --- | --- | --- | --- | --- | --- | --- | --- | --- | --- | --- | --- | --- |
| COc1cccc2c1C(=O)c1c(O)c3c(c(O)c1C2=O)C[C@@](O)(C(=O)CO)C[C@@H]3O[C@H]1C[C@H](N)[C@H](O)[C@H](C)O1 [doxorubicin, reference compound] | 0.01 to 0.02 µM | no effect | 41 days | – | – | – | – | – | – | – | – | – | – | – | – | – | – |
| Cc1ccc2nc(CN(CCN(Cc3nc4ccc(C)cc4[nH]3)Cc3nc4ccc(C)cc4[nH]3)Cc3nc4ccc(C)cc4[nH]3)[nH]c2c1 [NSC348884, N,N,N′,N′-tetrakis[(5-methyl-2-benzimidazolyl)methyl]-1,2-ethanediamine] | ~1.7 µM | – | 53 days | ~4 µM | no effect | 1.7 to 4 µM | disrupted | no effect | dose-dependent increase in apoptosis | > 50% | correlated well with PARP-cleavage and induction H2AX phosphorylation | induced apoptosis | up-regulated | increased | enhanced p53 | higher p53 proteins were induced | statistically significant survival advantage |

From US8063089B2, “Inhibitors of nucleophosmin (NPM) and methods for inducing apoptosis” (Arizona Board of Regents on Behalf of the University of …, priority 2007, dated 2011)
